Reference: paper PMC8406801, “Naringenin Inhibits Platelet Activation and Arterial Thrombosis Through Inhibition of Phosphoinositide 3-Kinase and Cyclic Nucleotide Signaling” (Frontiers in Pharmacology, 2021)
Where “and” joins values, the source holds several entries; their conditions need not be identical. Equal entries are not always repeated. Where two headings read alike, the source gives them in different places.

Experiments:
[1] = tested on: washed rat platelets; experiment: Collagen (2 μg/ml)-induced aggregation of washed platelets; assay type: cell-based; conditions: for Aggregation (%) / Aggregation % of control: washed platelets, single replicates; for Aggregation (%): raw data
Experimental: Washed rat platelets were prepared as described previously ([Gao et al., 2011]) with a minor modification. Briefly, rat blood was drawn from the abdominal aorta into the siliconized vacutainers containing 1:9 (v/v) 3.8% sodium citrate, supplemented with 100 ng/ml prostaglandin E1 (PGE1) and centrifuged at 300 × g for 6 min at room temperature. Platelet-rich plasma (PRP) was obtained, and after the addition of 100 ng/ml PGE1, platelets were pelleted at 900 × g for 10 min. Platelets were washed once in Tyrode’s buffer (12 mM NaHCO3, 138 mM NaCl, 5.5 mM glucose, 2.9 mM KCl, 2 mM MgCl2, 0.42 mM NaH2PO4, 10 mM HEPES, pH 7.4) containing 100 ng/ml PGE1, and finally resuspended in Tyrode’s buffer containing 0.02 U/mL apyrase to a final concentration of 4×10^8 cells/mL. Washed platelets were preincubated with vehicle (0.4% dimethyl sulfoxide) or various concentrations of naringenin in the presence of 2 mM CaCl2 for 5 min at 37°C, and then further stimulated by ADP (10 μM), thrombin (0.2 U/mL) or collagen (2 μg/ml). The maximum platelet aggregation rate was detected within 5 min with continuous stirring.
FIGURE 1 Effects of naringenin and naringin on platelet aggregation. Chemical structure of naringin (A) and naringenin (B). The effects of naringin (C) or naringenin (D) on PRP were measured following stimulation with 10 μmol/L ADP. Rat washed platelet aggregation performed with or without different concentrations of naringin (E) or naringenin (F) was recorded after stimulation with 10 μmol/L ADP. Similarly, Washed platelet aggregation performed with vehicle or various concentrations of naringenin was recorded after stimulation with 0.2 U/mL thrombin (G) or 2 μg/ml collagen (H). WP represents washed platelets. Data are expressed as means ± SD (n = 6), the level of aggregation obtained at 5 min with vehicle-treated samples (0 μM) was taken as 100%. *p < 0.05, **p < 0.01, ***p < 0.001 compared with the vehicle control group.

[2] = tested on: PDE extracts prepared from rat PRP (cAMP hydrolysis); experiment: Phosphodiesterase activity in platelet extracts, hydrolysis of cAMP (HPLC); assay type: biochemical; conditions: vehicle = 100%, single replicates
Experimental: The effects of naringenin on PDE activity were determined using high-performance liquid chromatography (HPLC) ([Hu et al., 2011]). Briefly, PRP was pelleted by centrifugation for 10 min at 900 × g and homogenized in PBS containing 0.1% Triton X-100 using an ultrasonic homogenizer. After centrifugation at 12,000 × g for 20 min at 4°C, the supernatant was subjected to PDE activity assay.
DMSO vehicle or different concentrations naringenin were added to assay buffer (137 mM NaCl, 2.7 mM KCl, 8.8 mM Na2HPO4, 1.5 mM KH2PO4, 1 mM CaCl2, 1 mM MgCl2, pH 7,4) containing cAMP or cGMP. The reaction was initiated by adding 30 μL PDE extracts prepared from rat PRP as described above. Some extracts were boiled for 3 min to inactivate PDE before addition. After incubation for 30 min at […], the reaction was terminated by boiling the mixture for 3 min. Subsequently, the mixture was cooled on ice followed by centrifugation at 12,000 × g for 20 min at 4°C. The supernatant was subjected cAMP or cGMP assay using HPLC. PDE activity was expressed as percentages of the hydrolysis of cAMP or cGMP.

[3] = tested on: ERK1/2 phosphorylation; experiment: Ex vivo immunoblotting of phospho-ERK1/2 in ADP-stimulated PRP of treated rats; set-up: species or system rat; conditions: for p-ERK1/2 / t-ERK (Fold to Control) / p-ERK1/2 / t-ERK (raw data): ex vivo, Figure 8E
Experimental: Male SD rats were randomly divided into 5 groups with 6 rats in each group. […] Sixty minutes after the last sample treatment, blood was drawn from the abdominal aorta of rats into the siliconized vacutainers containing 1:9 (v/v) 3.8% sodium citrate. The collected blood was centrifuged at 100 × g for 10 min at room temperature to obtain PRP. […] The platelet counts of PRP were adjusted to 4×10^8 cells/mL using PPP. PRP was incubated for 5 min at 37°C and then stimulated by ADP (5 μM). The maximum platelet aggregation rate was determined as mentioned above.
For in vitro platelet aggregation, aliquots of washed platelets were preincubated with vehicle or various concentrations of naringenin for 5 min and stimulated with ADP (10 μmol/L) under stirring at 37°C for 5 min. For ex vivo platelet aggregation, PRP was incubated at 37°C for 5 min and stimulated with ADP (5 μmol/L) under stirring at 37 °C. The platelet aggregation was terminated by adding ethylenediaminetetraacetic acid (EDTA; 10 mM). Total protein was prepared using RIPA lysis buffer and protein content was determined by bicinchoninic acid (BCA) protein assay kit. Equal amounts of platelet proteins (30 μg) were separated on 10% SDS polyacrylamide gel electrophoresis (SDS-PAGE) and then transferred to poly vinylidene difluoride (PVDF) membranes and subjected to western blot. Blots were blocked with TBS-Tween 20 containing 5% BSA and probed with primary antibodies diluted in blocking solution at 4°C overnight followed by incubation with the corresponding HRP secondary antibodies. The protein bands were visualized using enhanced chemiluminescence (ECL).
Blood was collected and PRP was obtained after the last treatment. Platelet aggregation was induced by ADP (5 μmol/L) (A). Data are expressed as means ± SD (n = 6). After ADP stimulation, platelet proteins were then extracted and analyzed by immunoblotting using PI3Kp110β antibody (B) and phospho-specific antibodies such as Akt^Ser473 (C), Akt^Thr308 (D) and ERK1/2^Thr202/Tyr204 (E). Total level of GAPDH was measured on each sample as a loading control. The blots shown are representative of three separate experiments. The relative protein expression levels were quantified by ImageJ 1.47v software. The level of relative protein expression obtained with vehicle control was taken as 1. R represents the level of relative protein expression in resting platelets. Data are expressed as means ± SD (n = 3). *p < 0.05, **p < 0.01, ***p < 0.001 compared with the vehicle control group (Con).
To further investigate the antiplatelet mechanisms of naringenin ex vivo, several signaling molecules such as PI3Kp110β, Akt and ERK were detected. After oral administration of naringenin (200, 400, and 800 mg/kg) to rats for 7 days, rat PRP was prepared and stimulated by ADP (5 μmol/L), and platelets were lysed to determine protein phosphorylation levels using western blot.

## O=C1C[C@@H](c2ccc(O)cc2)Oc2cc(O)cc(O)c21 [Naringenin]
[1]
  IC50: ~236 µM
[1]; Rattus norvegicus, Platelet
  IC50: 236 ± 33.1 µM
[1]; 100 μM
  Aggregation (%): 32.0% and 39.6% and 43.9% and 35.0% and 27.0% and 45.0%
  Aggregation % of control: 75.4 % of control and 93.4 % of control and 103.5 % of control and 82.5 % of control and 63.6 % of control and 106.1 % of control
[1]; 200 μM
  Aggregation (%): 24.1% and 37.0% and 14.9% and 25.4% and 24.3% and 10.0%
  Aggregation % of control: 56.8 % of control and 87.2 % of control and 35.1 % of control and 59.9 % of control and 57.3 % of control and 23.6 % of control
[1]; 400 μM
  Aggregation (%): 10.0% and 14.0% and 11.7% and 7.9% and 15.4% and 4.9%
  Aggregation % of control: 23.6 % of control and 33.0 % of control and 27.6 % of control and 18.6 % of control and 36.3 % of control and 11.6 % of control
[1]; 800 μM
  Aggregation (%): 7.3% and 9.1% and 9.0% and 4.9% and 4.2% and 14.0%
  Aggregation % of control: 17.2 % of control and 21.5 % of control and 21.2 % of control and 11.6 % of control and 9.9 % of control and 33.0 % of control
[2]; 100 μM
  PDE activity (%): 78.12% and 75.15% and 93.45%
[2]; 200 μM
  PDE activity (%): 76.39% and 84.94% and 63.29%
[2]; 400 μM
  PDE activity (%): 79.01% and 85.41% and 68.34%
[2]; 800 μM
  PDE activity (%): 43.72% and 69.43% and 76.24%
[3]; naringenin 200mg/kg
  p-ERK1/2 / t-ERK (Fold to Control): 0.4913 and 0.9007 and 0.8159
  p-ERK1/2 / t-ERK (raw data): 0.4317 and 0.7915 and 0.7170
[3]; naringenin 800mg/kg
  p-ERK1/2 / t-ERK (Fold to Control): 0.4112 and 0.5367 and 0.7060
  p-ERK1/2 / t-ERK (raw data): 0.3613 and 0.4716 and 0.6204
[3]; rats, oral 200, 400, and 800 mg/kg for 7 days, ADP 5 μmol/L
  phosphorylation of ERK in rat PRP ex vivo: significantly suppressed
